Here are results for 87 compounds from a melting point compilation (Tetko et al.; mined from patent text by program, amines drawn as free bases though some values may be those of a salt).

Usually melting point stands for the temperature of the solid-liquid transition.

`Cc1c(S(=O)(=O)Nc2ccc(-c3nc(CO)cs3)cc2S(C)(=O)=O)sc2ccc(F)cc12` had a melting point of 209 to 210 °C. As for `COC(=O)Cn1c(C(=O)NC(N)=S)cc2cc(C)ccc21`, the melting point fell in the range of 222 to 224 °C.

`Nc1ccc(Oc2ccc3c(c2)OCC(=O)N3)cc1` displayed a melting point of 201 to 202 °C. Then `CSc1nc(NC2CCCCC2)c2nonc2n1`, with 129 to 130 °C; and `c1ccc(Cc2ncc(-c3ccc4cc(OCc5nnn[nH]5)ccc4c3)o2)cc1`, with 227 to 228 °C; and `CCOC(=O)c1cc(-c2ccc(Cl)cc2)c(Cl)nc1N`, with 195 to 198 °C. The figure for `Cc1cc(=O)c(-c2ccc(Oc3ccc(S(C)(=O)=O)cc3)cc2)c(C)o1` is 170 to 173 °C; for `Cc1c(Cl)c(=O)n2c3c(cc(C(O)(C(F)(F)F)C(F)(F)F)cc13)CCC2` it is 266 to 268 °C; for `OCc1cnc(-c2cccs2)s1` it is 89 to 90 °C. The figure for `Cc1cc(C(O)(C(F)(F)F)C(F)(F)F)cc(C)c1NCCCN` is 130 to 133 °C; for `O=C(O)CCCC(=O)Nc1cccc(-c2ccnc3c(C(=O)c4cccs4)cnn23)c1` it is 189 to 190 °C. Compound `CC(C)(C(=O)N(O)Cc1ccccc1Cl)C(Cl)Cl` had a melting point of 136 to 138 °C. The figure for `CC(=O)c1ccc(OCC(O)CCCl)cc1` (configuration not stated) is 75 to 77 °C; for `CCC(=O)Nc1ccc(OCc2nc(Cl)ccc2Cl)cc1` it is 169 to 171 °C. The figure for `CCOC(=O)c1c(C)nn(C)c1CSC(=N)N` is 175 to 180 °C; for `Clc1ccc2ccc(/C=C/c3cccc(CN4CCc5cccc(CCc6nnn[nH]6)c54)c3)nc2c1` it is 141 to 144 °C. Then `COc1cc(-c2c(-c3ccncc3)c(-c3ccc(F)cc3)nn2CCO)ccn1`, with 168 to 169 °C; and `COc1ccc(C=CC2=NNC(C)Cc3cc(OC)c(OC)cc32)c(OC)c1` (configuration not stated), with 118 to 120 °C.

In the case of `CCCCCCOc1ccc2c(c1CCC)OC(CCC(=O)O)(CCC(=O)O)CC2=O`, the melting point was 164 to 165 °C. `CC(=O)Nc1nc(/C=C/C(=O)N2CCN(C(=O)c3cc(C(F)(F)F)cc(C(F)(F)F)c3)[C@H](Cc3c[nH]c4ccccc34)C2)cs1` showed a melting point of 167 to 172 °C. Then `O=c1[nH]c(=O)n(C2CC2)c2nc(S(=O)(O)=S)c(F)cc12`, with 300 to 302 °C; and `Fc1nc(Oc2ccc(CCNc3ncnc4nccnc34)cc2)c(F)c(C(F)(F)F)c1F`, with 103 to 108 °C; and `CCNc1c(C(F)(F)F)cc([N+](=O)[O-])c(NN(C)C)c1[N+](=O)[O-]`, with 108 to 116 °C. On to `CC(=O)C(=O)Nc1ccc(C#N)c(C(F)(F)F)c1`, for which the melting point was 147 to 148 °C. The compound `CC(Cc1c[nH]c2ccccc12)C1CCNCC1` (configuration not stated) yielded a melting point of 150 °C. The figure for `c1ccc(CCn2cc3c(ncn4nc(-c5ccco5)nc34)n2)cc1` is 268 to 270 °C; for `C(=Nn1ccnc1N1CCOCC1)c1ccccc1` it is 59 to 61 °C. Then `CC1(COC2CC3C4CCC5=CC(=O)C=CC5(C)C4(F)C(O)CC3(C)C2(O)C(=O)CCl)CO1` (configuration not stated), with 193 to 236 °C; and `CSC1C(=O)Nc2c(Nc3ccccc3)cccc21` (configuration not stated), with 174 to 176 °C; and `Cc1c(C=NO)c2ccccc2n1-c1ccc(O)c(F)c1`, with 182 to 184 °C. Then `CC(=O)Oc1ccc2c(c1)COc1c-2cc(Br)c2cc(OC(C)=O)ccc12`, with 192 to 194 °C; and `N#Cc1cc2c(Oc3ccc(Cl)cc3)cncc2s1`, with 140 to 142 °C. `N#Cc1ccc(Cn2c(N3CCC(CNc4nccc(O)n4)CC3)nc3ccccc32)cc1` returned a melting point of 198 °C. The figure for `COC(=O)C(C)Oc1cc(C)ccc1COc1ccc(-n2c(=O)cc(C(F)(F)F)n(C)c2=O)cc1` (configuration not stated) is 52 to 54 °C; for `CC(CCNC1=Nc2ccc(Br)c3cccc1c23)n1ccnc1` (configuration not stated) it is 240 to 241 °C; for `COC(=O)c1oc(C(C)(C)C)cc1N` it is 91 to 92 °C. Then `CCCCCCCCCCCCCCCc1cccc(OC)c1C1NC(=O)NC(C)=C1C(=O)OCC` (configuration not stated), with 91 to 93 °C. The figure for `CCCc1c(C(=O)NCc2ccc(-c3ccc(OCC(=O)O)c(Br)c3)cc2)cnn1-c1ccccc1` is 204 to 206 °C; for `C=C(C)C1CCC2(C(=O)O)CCC3(C)C(CCC4C5(C)CCC(O)C(C)(CO)C5CCC43C)C12` (configuration not stated) it is 258 to 259 °C. In turn, `CCCC[C@H](NC(=O)CC[C@H](C)CNC(=O)COc1ccccc1)C(=O)CS(=O)Cc1ccco1` (some centres not stated) had a melting point of 96 to 99 °C. The figure for `COc1ccccc1C(O)(c1ccc(C(C)C)cc1)C(C)C` (configuration not stated) is 85 to 86 °C; for `Cc1cc(SC2=C(O)CC(C3CCCC3)(C3CCCC3)OC2=O)c(C(C)(C)C)cc1OS(=O)(=O)c1cn(C)cn1` it is 143 to 145 °C; for `c1ccc(-c2ncn(C3CCCCO3)c2-c2ccccc2)cc1` (configuration not stated) it is 104 to 105 °C. Then `CC1(C)[C@@H](C(=O)O)[C@@H]1C(=O)O` (relative stereo), with 217 °C; and `CCc1c(C)sc(NC(=O)OC(C)(C)C)c1C(=O)O`, with 196 to 197 °C. Then `C#CC[C@]12CCC(=O)C=C1CC[C@@H]1[C@@H]2CC[C@]2(C)C(=O)CC[C@@H]12`, with 174 to 175 °C; and `O=C(Nc1nnn[nH]1)c1cnc2sc3ccc(F)cc3n2c1=O`, with more than 300 °C. On to `C=CCCC(C#N)(C#N)Cc1ccc(OC(F)(F)Br)cc1`, for which the melting point is 50.2 °C.

For the compound `CCCCCCCCCCCCCC(=O)Nc1ccc(C2=NNC(=O)NC2C)cc1` (configuration not stated), the melting point is 206 to 209 °C. The figure for `OCc1cc(Nc2nc(-c3ccccc3)nc3ccccc23)[nH]n1` is 238 to 239 °C; for `Cc1ccc2c(n1)[nH]c1ccc(C(=O)c3ccccc3)cc12` it is 231 °C; for `O=c1oc2c(I)cc(I)cc2s1` it is 155 to 157 °C.

`Cc1cc(Cl)ccc1NC(=N)Nc1ncccc1OCc1c(F)cccc1Cl` gave a melting point of 155 to 156 °C.

For the compound `COC(=O)/C(=C/C=C/c1ccc2ccccc2n1)OC`, the melting point amounted to 88 °C. Then `Cc1cnc(NCCc2ccccn2)c(=O)n1NC(=O)CCc1cc(C(F)(F)F)ccc1F`, with 181 to 184 °C; and `Cc1cn2nc(SCc3ccccc3)nc2nc1Cl`, with 179 to 181 °C; and `O=C(Nc1cccc(S(=O)(=O)N2CCCC2)c1)c1cnn2c(C(F)(F)F)cc(-c3ccc(C(F)(F)F)cc3)nc12`, with 241 °C. The figure for `CS(=O)(=O)c1cccc(NC(=O)c2cnn3c(C4CC4)cc(-c4ccc(Cl)cc4)nc23)c1` is 235 to 238 °C; for `COc1cc(O)c(C(=O)C=Cc2ccc(C)o2)c(OC)c1` it is 103 °C. The figure for `[N-]=[N+]=NCC1Cc2cc(I)c3[nH]c(=O)ccc3c2O1` (configuration not stated) is 175 °C. `CCCCCC(=O)NC[C@@H]1CN2C(=O)C[C@H]2O1` (racemic) had a melting point of 56 to 57 °C. Compound `Cn1cc(-c2cccc(N3Cc4cc(C(C)(C)C)ccc4C3=O)c2CO)cc(Nc2ccc(N3CCNCC3=O)cn2)c1=O` displayed a melting point of 218 to 220 °C.

With `COC(=O)c1cc(C)cc(C=O)c1`, the melting point fell in the range of 71 to 73 °C. The figure for `COc1ccc(CCN2CCC(C(=O)c3csc4ccccc34)CC2)cc1` is 114 to 116 °C.

Compound `Cc1oc(-c2ccccc2)nc1CCOc1ccc(C[C@@H](C(=O)O)N2CCN(S(=O)(=O)c3ccc([N+](=O)[O-])cc3)CC2)cc1` showed a melting point of 205 to 207 °C. Then `CCC(=NO)C(C)(C)NCC(C)(C)CN`, with 118 to 120 °C; and `CCCCC(NC(=O)C(CC(C)C)NC(=O)c1ccc2ccccc2c1)C(=O)CSCc1ccco1` (configuration not stated), with 97 to 99 °C; and `CCCn1c(-c2ccc(-n3ccnc3)cc2)cnc1[C@H](Cc1ccccn1)N(C=O)c1cc2cc(C(F)(F)F)ccc2o1`, with 92 to 98 °C. Then `CCCc1[nH]c2cc(C(=O)O)ccc2c1C(=O)C1CCC1`, with 244 to 245 °C; and `CCOC(=O)Cc1c(-c2ccc(C)cc2)nn2cccnc12`, with 69 to 71.5 °C. Then `Cc1ccc(Cn2nc(C(=O)O)cc2-c2ccc(Cl)c(C)c2)cc1`, with 180 °C; and `COc1ccc2c(=O)c(O)cn(C)c2c1`, with 228 °C; and `O=C(c1ccsc1)c1cccc(-c2c(O)c3ccc(Cl)cc3[nH]c2=O)c1`, with 287 to 290 °C. The compound `O=C(Cc1ccccc1)Nc1ncc(-c2ccc(O)cc2)nc1Cc1ccccc1` registered a melting point of 259 to 261 °C. Then `Cc1c(C)c2c(c(C)c1N)OC(C)(C)C2Cc1ccccc1` (configuration not stated), with 75 to 76 °C. Then `CC1Cc2cc3c(cc2C(c2ccc([N+](=O)[O-])cc2)=NN1C(=O)Cc1ccccc1)OCO3` (configuration not stated), with 193 to 195 °C; and `CCCn1c(=O)c2c(N)n(CC(=O)c3cccc(OC)c3)nc2n(Cc2ccccc2)c1=O`, with 184 to 185 °C. The figure for `Clc1ccc(OC(c2ccc(Cl)cc2)C(Cl)(Cl)Cl)cc1` (configuration not stated) is 101 °C; for `CCOC(=O)c1oc2cc(O)c(O)cc2c1C` it is 212 to 214 °C. As for `CC(=O)n1nc(-c2cnccn2)nc1-c1cnccn1`, the melting point is 128 to 130 °C. `O=C1NCCc2c(-c3ccsc3)[nH]c3cccc1c23` yielded a melting point of 255 to 256 °C. With `Cc1nc(-c2ccc(C#N)cc2)sc1C(=O)N[C@H](C)[C@](O)(Cn1cncn1)c1ccc(Cl)cc1Cl`, the melting point was in the range of 109 to 113 °C.

`COc1ccccc1CNc1ccc2cc(Nc3cc(C)on3)ccc2n1` had a melting point of 132 °C.

`CCOCCOc1ccc(C(C)C)c(NC(=O)CN2CCN(CCSc3nc4ccccc4o3)CC2)c1C(C)C`: the melting point lay in the range of 100 to 103 °C.

`CC(C)c1cccc(C(C)C)c1NC(=O)CN1CCN(CCSc2nc3cccc(S(C)=O)c3o2)CC1` (configuration not stated) had a melting point of 119 to 120 °C. The figure for `Cn1nc(-c2c(F)cccc2Cl)nc1-c1ccc(COc2ncc(C(F)(F)F)cc2Cl)c(Cl)c1` is 47 to 49 °C; for `CCNC(=O)c1cccc([N+](=O)[O-])c1` it is 118 to 120 °C.
